Earlier results, collected in article PMC11247654 (ACS Medicinal Chemistry Letters, 2024).

What was measured:
[1] = neutropenic mouse thigh infection assay

## Leu10-isobactin A
MRSA
  In vitro activity against MRSA: 0.5 µg/mL
[1]
  In vivo activity (active dose): 3 to 10 mg/kg
